In publication PMC4450297, “Screening Active Compounds from Garcinia Species Native to China Reveals Novel Compounds Targeting the STAT/JAK Signaling Pathway” (BioMed Research International, 2015):

Assays:
Assay in all cases: Cell panel screen (CellTiter-Glo)
Type in all cases: cell-based, human
BT-474 = BT-474 (Breast), 20 micromolar, 72 hrs
Procedure: (§1) All cells were obtained from the cell bank of the American Type Culture Collection (ATCC) and cultured in the supplier's recommended media supplemented with 10% FBS. The cell panel screen was measured using the CellTiter-Glo assay (Promega, Madison, WI) following a standard protocol. Briefly, cancer cells were seeded in 96-well plates and cultured overnight at 37°C with or without 5% CO2 in an incubator. Each compound was dissolved with limited DMSO and diluted to a certain concentration with culture medium and then added to the corresponding well of the cell plate. The final concentration of compound was 20 μM. The control cells (without treatment) received the same amount of DMSO and were incubated under the same conditions. After 72 h cultivation, 100 μL of the CellTiter-Glo reagent was added directly to each well for 10-minute incubation. The plate was then read on a FlexStation 3 microplate luminometer (Molecular Devices, USA) to monitor the luminescence signal generated by the luciferase-catalyzed reaction of luciferin and ATP. The percent of growth inhibition was calculated using the following formula: (untreated cells − treated cells)/(untreated cells − background without cells) ∗ 100.

T47D = T47D (Breast), 20 micromolar, 72 hrs
Procedure: as §1

NCI-H1770 = NCI-H1770 (Lung), 20 micromolar, 72 hrs
Procedure: as §1

J82 = J82 (Urinary bladder), 20 micromolar, 72 hrs
Procedure: as §1

NCI-H1694 = NCI-H1694 (Lung), 20 micromolar, 72 hrs
Procedure: as §1

HPAF-II = HPAF-II (Pancreas), 20 micromolar, 72 hrs
Procedure: as §1

ZR-75-30 = ZR-75-30 (Breast), 20 micromolar, 72 hrs
Procedure: as §1

Bel-7402 = Bel-7402 (Liver), 20 micromolar, 72 hrs
Procedure: as §1

M059J = M059J (Brain), 20 micromolar, 72 hrs
Procedure: as §1

T98G = T98G (Brain), 20 micromolar, 72 hrs
Procedure: as §1

HCC1937 = HCC1937 (Breast), 20 micromolar, 72 hrs
Procedure: as §1

HCC1395 = HCC1395 (Breast), 20 micromolar, 72 hrs
Procedure: as §1

NCI-H28 = NCI-H28 (Lung), 20 micromolar, 72 hrs
Procedure: as §1

RL95 = RL95 (Uterus), 20 micromolar, 72 hrs
Procedure: as §1

A498 = A498 (listed under Lung), 20 micromolar, 72 hrs
Procedure: as §1

ChaGo-K-1 = ChaGo-K-1 (Lung), 20 micromolar, 72 hrs
Procedure: as §1

NCI-H524 = NCI-H524 (Lung), 20 micromolar, 72 hrs
Procedure: as §1

C8166 = C8166 (Leukemia), 20 micromolar, 72 hrs
Procedure: as §1

Panc 03.27 = Panc 03.27 (Pancreas), 20 micromolar, 72 hrs
Procedure: as §1

CW-2 = CW-2 (Colon), 20 micromolar, 72 hrs
Procedure: as §1

HT-1197 = HT-1197 (Urinary bladder), 20 micromolar, 72 hrs
Procedure: as §1

Colo 205 = details: Colo 205, 20 micromolar, 72 hrs
Procedure: as §1

HEC-1-A = HEC-1-A (Uterus), 20 micromolar, 72 hrs
Procedure: as §1

A704 = A704 (Kidney), 20 micromolar, 72 hrs
Procedure: as §1

TCCSUP = TCCSUP (Urinary bladder), 20 micromolar, 72 hrs
Procedure: as §1

NCI-H1623 = NCI-H1623 (Lung), 20 micromolar, 72 hrs
Procedure: as §1

SW13 = SW13 (Adrenal gland), 20 micromolar, 72 hrs
Procedure: as §1

NCI-H2347 = NCI-H2347 (Lung), 20 micromolar, 72 hrs
Procedure: as §1

C3A = C3A (Liver), 20 micromolar, 72 hrs
Procedure: as §1

HCC1599 = HCC1599 (Breast), 20 micromolar, 72 hrs
Procedure: as §1

MSTO-211-H = MSTO-211-H (Lung), 20 micromolar, 72 hrs
Procedure: as §1

BT-549 = BT-549 (Breast), 20 micromolar, 72 hrs
Procedure: as §1

CCF-STTG1 = CCF-STTG1 (Brain), 20 micromolar, 72 hrs
Procedure: as §1

HCC1569 = HCC1569 (Breast), 20 micromolar, 72 hrs
Procedure: as §1

NCI-H2405 = NCI-H2405 (Lung), 20 micromolar, 72 hrs
Procedure: as §1

HGC-27 = HGC-27 (Stomach), 20 micromolar, 72 hrs
Procedure: as §1

Row | Structure (SMILES) | Percent Inhibition (BT-474) | Percent Inhibition (T47D) | Percent Inhibition (NCI-H1770) | Percent Inhibition (J82) | Percent Inhibition (NCI-H1694) | Percent Inhibition (HPAF-II) | Percent Inhibition (ZR-75-30) | Percent Inhibition (Bel-7402) | Percent Inhibition (M059J) | Percent Inhibition (T98G) | Percent Inhibition (HCC1937) | Percent Inhibition (HCC1395) | Percent Inhibition (NCI-H28) | Percent Inhibition (RL95) | Percent Inhibition (A498) | Percent Inhibition (ChaGo-K-1) | Percent Inhibition (NCI-H524) | Percent Inhibition (C8166) | Percent Inhibition (Panc 03.27) | Percent Inhibition (CW-2) | also measured
1 | O=C1c2c(O)cc(O)cc2OC(c2ccc(O)cc2)C1c1c(O)cc(O)c2c(=O)cc(-c3ccc(O)c(O)c3)oc12 (stereo not drawn) [WZ-4] | -5% | 6% | -10% | -5% | -10% | -10% | 8% | -3% | -1% | -2% | 0% | 16% | 0% | -2% | 4% | -14% | -18% | -3% | -16% | 11% | Percent Inhibition (HT-1197): -4%; Percent Inhibition (Colo 205): -6%; Percent Inhibition (HEC-1-A): 10%; Percent Inhibition (A704): -1%; Percent Inhibition (TCCSUP): 3%; Percent Inhibition (NCI-H1623): -15%; Percent Inhibition (SW13): 5%; Percent Inhibition (NCI-H2347): -4%; Percent Inhibition (C3A): -2%; Percent Inhibition (HCC1599): 8%; Percent Inhibition (MSTO-211-H): 6%; Percent Inhibition (BT-549): -12%; Percent Inhibition (CCF-STTG1): 0%; Percent Inhibition (HCC1569): -17%; Percent Inhibition (NCI-H2405): -14%; Percent Inhibition (HGC-27): -4%
2 | O=c1c2cc(O)c(O)cc2oc2cc(O)cc(O)c12 [Ge-17] | -7% | 48% | 72% | 47% | 99% | 13% | 6% | 7% | 63% | 54% | 65% | 38% | 9% | 53% | 41% | 22% | 47% | 62% | 20% | 25% | Percent Inhibition (HT-1197): 16%; Percent Inhibition (Colo 205): 3%; Percent Inhibition (HEC-1-A): 51%; Percent Inhibition (A704): 1%; Percent Inhibition (TCCSUP): 61%; Percent Inhibition (NCI-H1623): 2%; Percent Inhibition (SW13): 8%; Percent Inhibition (NCI-H2347): 4%; Percent Inhibition (C3A): 33%; Percent Inhibition (HCC1599): 79%; Percent Inhibition (MSTO-211-H): 74%; Percent Inhibition (BT-549): 40%; Percent Inhibition (CCF-STTG1): 15%; Percent Inhibition (HCC1569): 16%; Percent Inhibition (NCI-H2405): -5%; Percent Inhibition (HGC-27): 55%
3 | CC(C)=CCCC1(C)C=Cc2c(O)c3c(c(CC=C(C)C)c2O1)OC12C(=CC4CC1C(C)(C)OC2(CC=C(C)C(=O)O)C4=O)C3=O (mixture of isomers) [GB14] | 98% | 98% | 97% | 97% | 98% | 97% | 99% | 97% | 97% | 98% | 98% | 98% | 97% | 97% | 97% | 98% | 98% | 97% | 97% | 98% | Percent Inhibition (HT-1197): 98%; Percent Inhibition (Colo 205): 98%; Percent Inhibition (HEC-1-A): 97%; Percent Inhibition (A704): 97%; Percent Inhibition (TCCSUP): 98%; Percent Inhibition (NCI-H1623): 98%; Percent Inhibition (SW13): 97%; Percent Inhibition (NCI-H2347): 97%; Percent Inhibition (C3A): 98%; Percent Inhibition (HCC1599): 98%; Percent Inhibition (MSTO-211-H): 97%; Percent Inhibition (BT-549): 98%; Percent Inhibition (CCF-STTG1): 98%; Percent Inhibition (HCC1569): 98%; Percent Inhibition (NCI-H2405): 97%; Percent Inhibition (HGC-27): 98%
